{"source": "patent US8450320B2", "about": "“Pyrrolopyrazinone inhibitors of kinases” (AbbVie Inc., priority 2010, dated 2013)", "data": [{"target": "T1, Cdc7 (BEV coexpressed huCDC7/DBF4) (Homo sapiens, UniProt O00311)", "T1 construct": "made in house; host or cells: BEV (baculovirus expression vector)", "T1 sequence (O00311 whole entry)": "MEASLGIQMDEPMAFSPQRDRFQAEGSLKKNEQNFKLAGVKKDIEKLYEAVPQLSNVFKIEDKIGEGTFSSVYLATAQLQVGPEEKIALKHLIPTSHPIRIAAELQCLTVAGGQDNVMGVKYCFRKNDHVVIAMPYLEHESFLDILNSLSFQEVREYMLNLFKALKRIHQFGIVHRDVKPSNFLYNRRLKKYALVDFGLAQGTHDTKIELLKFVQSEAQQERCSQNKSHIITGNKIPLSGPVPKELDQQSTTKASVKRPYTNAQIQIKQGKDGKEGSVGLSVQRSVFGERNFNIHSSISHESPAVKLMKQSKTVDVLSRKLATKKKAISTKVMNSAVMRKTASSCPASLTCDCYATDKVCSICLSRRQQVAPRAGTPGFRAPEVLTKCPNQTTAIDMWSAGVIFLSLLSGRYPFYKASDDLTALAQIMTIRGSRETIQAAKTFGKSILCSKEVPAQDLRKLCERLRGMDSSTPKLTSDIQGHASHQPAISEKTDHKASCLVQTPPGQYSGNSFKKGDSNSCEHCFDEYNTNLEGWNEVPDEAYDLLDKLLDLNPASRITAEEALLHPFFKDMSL", "T1 sequence (Q9UBU7 whole entry partner)": "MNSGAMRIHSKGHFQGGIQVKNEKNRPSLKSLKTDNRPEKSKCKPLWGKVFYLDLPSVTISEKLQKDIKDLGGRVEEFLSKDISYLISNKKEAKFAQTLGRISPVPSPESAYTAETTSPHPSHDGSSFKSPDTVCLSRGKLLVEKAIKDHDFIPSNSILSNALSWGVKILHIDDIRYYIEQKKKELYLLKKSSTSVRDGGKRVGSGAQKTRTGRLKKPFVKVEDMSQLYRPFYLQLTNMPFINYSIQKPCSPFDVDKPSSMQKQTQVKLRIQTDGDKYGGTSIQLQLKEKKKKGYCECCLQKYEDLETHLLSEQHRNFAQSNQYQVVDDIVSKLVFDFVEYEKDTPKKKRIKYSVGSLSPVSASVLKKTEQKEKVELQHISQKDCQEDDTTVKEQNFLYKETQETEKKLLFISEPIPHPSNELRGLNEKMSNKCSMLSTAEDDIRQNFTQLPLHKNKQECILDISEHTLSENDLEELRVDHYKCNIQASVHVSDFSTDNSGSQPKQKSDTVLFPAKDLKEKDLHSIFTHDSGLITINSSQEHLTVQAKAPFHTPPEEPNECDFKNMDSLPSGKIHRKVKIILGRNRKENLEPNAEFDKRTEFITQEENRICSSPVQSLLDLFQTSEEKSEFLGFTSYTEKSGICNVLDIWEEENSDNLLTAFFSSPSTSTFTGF", "experiment": "Cdc7 enzyme inhibition assay ([33P]-ATP, biotinylated peptide substrate, FlashPlate)", "type": "biochemical", "settings": "Ki generated from IC50 assuming ATP-competitive inhibition; 1 μM ATP, apparent ATP Km 0.7 μM", "procedure": "This example describes the assays that may be used to identify compounds having kinase activity.\nCdc7 (BEV coexpressed huCDC7/DBF4) is prepared internally. Cdc7 assays are conducted as follows with final concentrations as listed. In 384-well v-bottom polypropylene plates, 6 μL compound (2% DMSO), is mixed with 6 μL of Cdc7 (2 ug/mL), and Jerini peptide substrate A-All (biotin-C6linker-TPSDSLIYDDGLS) (2 μM), followed by immediate initiation with 6 μL […] (1 μM, 20 mCi/μmol) using a reaction buffer comprising 25 mM HEPES, pH 7.5, 1 mM DTT, 10 mM MgCl2, 100 μM Na3VO4, 0.075 mg/ml Triton X-100. Reactions are quenched after 1 hr by the addition of 90 μL stop buffer (50 mM EDTA, 2M NaCl). 85 μL of the stopped reactions are transferred to 384-well streptavidin-coated plates (FlashPlate Plus, Perkin Elmer), incubated 30 minutes at room temperature and washed 3 times with 0.05% Tween-20/PBS using an ELX-405 automated plate washer (BioTek), and counted on a TopCount Scintillation Plate Reader (Packard). IC50 values are determined via non-linear regression fitting of enzyme inhibition data and corresponding Ki values are generated assuming ATP-competitive (equilibrium) inhibition and using the experimentally determined apparent ATP Km of 0.7 μM (as determined using the above assay condition, but varying ATP).\nTable 1 depicts enzyme inhibition data (Ki) for exemplary compounds. In Table 1, “A” represents a Ki of less than 10 nM, “B” represents a Ki of between 10 nM and 100 nM, and “C” represents a Ki of greater than 100 nM.", "units": {"Ki": "nM"}, "values": [{"compound": "N#Cc1cc(Cc2c[nH]c(=O)c3cc(-c4ccncc4)cn23)ccc1F", "note": "[Example 1, 2-fluoro-5-{[1-oxo-7-(pyridin-4-yl)-1,2-dihydropyrrolo[1,2-a]pyrazin-4-yl]methyl}benzonitrile]", "Ki": "< 10"}, {"compound": "N#Cc1cc(Cc2c[nH]c(=O)c3cc(-c4c[nH]c5ncccc45)cn23)ccc1F", "note": "[Example 2, 2-fluoro-5-{[1-oxo-7-(1H-pyrrolo[2,3-b]pyridin-3-yl)-1,2-dihydropyrrolo[1,2-a]pyrazin-4-yl]methyl}benzonitrile]", "Ki": "< 10"}, {"compound": "O=C(O)c1cc(Cc2c[nH]c(=O)c3cc(-c4c[nH]c5ncccc45)cn23)ccc1F", "note": "[Example 3, 2-fluoro-5-{[1-oxo-7-(1H-pyrrolo[2,3-b]pyridin-3-yl)-1,2-dihydropyrrolo[1,2-a]pyrazin-4-yl]methyl}benzoic acid]", "Ki": "< 10"}, {"compound": "CCOC(=O)c1cccc(Cc2c[nH]c(=O)c3cc(-c4ccncc4)cn23)c1", "note": "[Example 4, ethyl 3-{[1-oxo-7-(pyridin-4-yl)-1,2-dihydropyrrolo[1,2-a]pyrazin-4-yl]methyl}benzoate]", "Ki": "10 to 100"}, {"compound": "O=C(O)c1cccc(Cc2c[nH]c(=O)c3cc(-c4c[nH]c5ncccc45)cn23)c1", "note": "[Example 5, 3-{[1-oxo-7-(1H-pyrrolo[2,3-b]pyridin-3-yl)-1,2-dihydropyrrolo[1,2-a]pyrazin-4-yl]methyl}benzoic acid]", "Ki": "< 10"}, {"compound": "CCOC(=O)c1cccc(Cc2c[nH]c(=O)c3cc(-c4c[nH]c5ncccc45)cn23)c1", "note": "[Example 6, ethyl 3-{[1-oxo-7-(1H-pyrrolo[2,3-b]pyridin-3-yl)-1,2-dihydropyrrolo[1,2-a]pyrazin-4-yl]methyl}benzoate]", "Ki": "< 10"}, {"compound": "O=C(O)c1cccc(Cc2c[nH]c(=O)c3cc(-c4ccncc4)cn23)c1", "note": "[Example 7, 3-{[1-oxo-7-(pyridin-4-yl)-1,2-dihydropyrrolo[1,2-a]pyrazin-4-yl]methyl}benzoic acid]", "Ki": "10 to 100"}, {"compound": "CCOC(=O)c1cccc(Cc2c[nH]c(=O)c3cc(-c4cccnc4)cn23)c1", "note": "[Example 8, ethyl 3-{[1-oxo-7-(pyridin-3-yl)-1,2-dihydropyrrolo[1,2-a]pyrazin-4-yl]methyl}benzoate]", "Ki": "> 100"}, {"compound": "CCOC(=O)c1cccc(Cc2c[nH]c(=O)c3cc(-c4cn[nH]c4)cn23)c1", "note": "[Example 9, ethyl 3-{[1-oxo-7-(1H-pyrazol-4-yl)-1,2-dihydropyrrolo[1,2-a]pyrazin-4-yl]methyl}benzoate]", "Ki": "< 10"}, {"compound": "NC(=O)c1cccc(Cc2c[nH]c(=O)c3cc(-c4c[nH]c5ncccc45)cn23)c1", "note": "[Example 10, 3-{[1-oxo-7-(1H-pyrrolo[2,3-b]pyridin-3-yl)-1,2-dihydropyrrolo[1,2-a]pyrazin-4-yl]methyl}benzamide]", "Ki": "< 10"}, {"compound": "O=C(O)c1cccc(Cc2c[nH]c(=O)c3cc(-c4c[nH]c5nccnc45)cn23)c1", "note": "[Example 11, 3-{[1-oxo-7-(5H-pyrrolo[2,3-b]pyrazin-7-yl)-1,2-dihydropyrrolo[1,2-a]pyrazin-4-yl]methyl}benzoic acid]", "Ki": "< 10"}, {"compound": "CCOC(=O)c1cccc(Cc2c[nH]c(=O)c3cc(-c4c[nH]c5nccnc45)cn23)c1", "note": "[Example 12, ethyl 3-{[1-oxo-7-(5H-pyrrolo[2,3-b]pyrazin-7-yl)-1,2-dihydropyrrolo[1,2-a]pyrazin-4-yl]methyl}benzoate]", "Ki": "< 10"}, {"compound": "NC(=O)c1cccc(Cc2c[nH]c(=O)c3cc(-c4cn[nH]c4)cn23)c1", "note": "[Example 13, 3-{[1-oxo-7-(1H-pyrazol-4-yl)-1,2-dihydropyrrolo[1,2-a]pyrazin-4-yl]methyl}benzamide]", "Ki": "< 10"}, {"compound": "O=c1[nH]cc(Cc2cccc([N+](=O)[O-])c2)n2cc(-c3c[nH]c4ncccc34)cc12", "note": "[Example 14, 4-(3-nitrobenzyl)-7-(1H-pyrrolo[2,3-b]pyridin-3-yl)pyrrolo[1,2-a]pyrazin-1(2H)-one]", "Ki": "< 10"}, {"compound": "O=C(c1ccc([N+](=O)[O-])cc1)c1c[nH]c(=O)c2cc(-c3c[nH]c4ncccc34)cn12", "note": "[Example 15, 4-(4-nitrobenzoyl)-7-(1H-pyrrolo[2,3-b]pyridin-3-yl)pyrrolo[1,2-a]pyrazin-1(2H)-one]", "Ki": "< 10"}, {"compound": "N#Cc1ccc(Cc2c[nH]c(=O)c3cc(-c4c[nH]c5ncccc45)cn23)cc1", "note": "[Example 16, 4-{[1-oxo-7-(1H-pyrrolo[2,3-b]pyridin-3-yl)-1,2-dihydropyrrolo[1,2-a]pyrazin-4-yl]methyl}benzonitrile]", "Ki": "< 10"}, {"compound": "O=C(Nc1ccc(Cc2c[nH]c(=O)c3cc(-c4c[nH]c5ncccc45)cn23)cc1)c1ccncc1", "note": "[Example 17, N-(4-{[1-oxo-7-(1H-pyrrolo[2,3-b]pyridin-3-yl)-1,2-dihydropyrrolo[1,2-a]pyrazin-4-yl]methyl}phenyl)isonicotinamide]", "Ki": "< 10"}, {"compound": "O=C(Nc1ccc(Cc2c[nH]c(=O)c3cc(-c4c[nH]c5ncccc45)cn23)cc1)C1CCC1", "note": "[Example 18, N-(4-{[1-oxo-7-(1H-pyrrolo[2,3-b]pyridin-3-yl)-1,2-dihydropyrrolo[1,2-a]pyrazin-4-yl]methyl}phenyl)cyclobutanecarboxamide]", "Ki": "< 10"}, {"compound": "CN(c1cccc(Cc2c[nH]c(=O)c3cc(-c4c[nH]c5ncccc45)cn23)c1)C1CCC1", "note": "[Example 19, 4-{3-[cyclobutyl(methyl)amino]benzyl}-7-(1H-pyrrolo[2,3-b]pyridin-3-yl)pyrrolo[1,2-a]pyrazin-1(2H)-one]", "Ki": "10 to 100"}, {"compound": "O=C(Nc1ccc(Cc2c[nH]c(=O)c3cc(-c4c[nH]c5ncccc45)cn23)cc1)C1CC1", "note": "[Example 20, N-(4-{[1-oxo-7-(1H-pyrrolo[2,3-b]pyridin-3-yl)-1,2-dihydropyrrolo[1,2-a]pyrazin-4-yl]methyl}phenyl)cyclopropanecarboxamide]", "Ki": "< 10"}, {"compound": "CS(=O)(=O)Nc1cccc(Cc2c[nH]c(=O)c3cc(-c4c[nH]c5ncccc45)cn23)c1", "note": "[Example 21, N-(3-{[1-oxo-7-(1H-pyrrolo[2,3-b]pyridin-3-yl)-1,2-dihydropyrrolo[1,2-a]pyrazin-4-yl]methyl}phenyl)methanesulfonamide]", "Ki": "< 10"}, {"compound": "Nc1cccc(Cc2c[nH]c(=O)c3cc(-c4c[nH]c5ncccc45)cn23)c1", "note": "[Example 22, 4-(3-aminobenzyl)-7-(1H-pyrrolo[2,3-b]pyridin-3-yl)pyrrolo[1,2-a]pyrazin-1(2H)-one]", "Ki": "< 10"}, {"compound": "Nc1ccc(Cc2c[nH]c(=O)c3cc(-c4c[nH]c5ncccc45)cn23)cc1", "note": "[Example 23, 4-(4-aminobenzyl)-7-(1H-pyrrolo[2,3-b]pyridin-3-yl)pyrrolo[1,2-a]pyrazin-1(2H)-one]", "Ki": "< 10"}, {"compound": "O=c1[nH]cc(Cc2ccc(NCc3ccccn3)cc2)n2cc(-c3c[nH]c4ncccc34)cc12", "note": "[Example 24, 4-{4-[(pyridin-2-ylmethyl)amino]benzyl}-7-(1H-pyrrolo[2,3-b]pyridin-3-yl)pyrrolo[1,2-a]pyrazin-1(2H)-one]", "Ki": "< 10"}, {"compound": "O=c1[nH]cc(Cc2ccc(CNC3CCC3)cc2)n2cc(-c3c[nH]c4ncccc34)cc12", "note": "[Example 25, 4-{4-[(cyclobutylamino)methyl]benzyl}-7-(1H-pyrrolo[2,3-b]pyridin-3-yl)pyrrolo[1,2-a]pyrazin-1(2H)-one]", "Ki": "< 10"}, {"compound": "O=C(Nc1ccc(Cc2c[nH]c(=O)c3cc(-c4c[nH]c5ncccc45)cn23)cc1)c1ccco1", "note": "[Example 26, N-(4-{[1-oxo-7-(1H-pyrrolo[2,3-b]pyridin-3-yl)-1,2-dihydropyrrolo[1,2-a]pyrazin-4-yl]methyl}phenyl)-2-furamide]", "Ki": "< 10"}]}]}
